Reference: paper PMC6152234, “Specialized Metabolites of the Lichen Vulpicida pinastri Act as Photoprotective Agents” (Molecules : A Journal of Synthetic Chemistry and Natural …, 2017)
In brackets after ≈: the same amount, converted by molar mass. Read-outs that look alike come from different tables or passages of the source. Marks after values point to notes of the source that are not given here. Values belong to the molecule of their own block, whether it stands above or below them.

Tests used:
[1] = DPPH assay (reducing activity); assay type: biochemical
Protocol: Reducing activity of compounds 1–3 and crude extract on the 1,1′-diphenyl-2-picrylhydrazyl free radical (DPPH) and scavenging activity on superoxide anion were measured as previously described. Briefly, the scavenging activity of the lichen compounds on DPPH was measured using the Matsukawa method with some modifications. A reaction mixture containing 100 µL of DPPH (0.5 mM) in methanol and 10 µL of the lichen compound solutions in DMSO to give final concentrations of 19, 56, 167 and 500 µg/mL per well, was distributed in each microplate well. To allow results comparison and due to the presence of extract, concentrations are expressed in µg/mL. The absorbances were recorded at 540 nm after 30 min.
(§1) For both assays, each concentration and all tests were done in triplicate and the results averaged. Ascorbic acid was used as a positive control. The percentage inhibition at steady state for each dilution was used to calculate the IC50 values. This gave the amount of antioxidant required (measured as the concentration of the stock solution added to the reaction mixture) to either scavenge 50% of O2^− or 50% of DPPH radicals: the lower the values, the higher the scavenging activity towards O2^−.

[2] = Stability of photoprotection indexes after UVA or UVB irradiation; assay type: physicochemical; conditions: for photostability: UVA and UVB
Protocol: One hundred eighty microliters of solution in 96-well plates were irradiated by UVA (2 J/cm^2) or UVB ([…]). The absorbances were then recorded and photoprotective indexes were calculated as described above. The stability was evaluated by comparison between indexes described previously (Section 3.5.1) and obtained before and after irradiation. Two independently prepared solutions were studied and OMC was used as a positive control.

[3] = NBT antioxidant assay of compounds in combination (isobologram, combination index); assay type: biochemical
Protocol: For each drug ratio (Tables S5 and S6 in SM), the antioxidant inhibition was evaluated as previously described (2.6.1).
The antagonistic, synergistic or additive effect of the combination depends on the combination index value (CI) (Equation (1)). […] (IC50)X is the value of the IC50 of compound X alone.
For both assays, each concentration and all tests were done in triplicate and the results averaged.

[4] = In vitro screening method for sun protection indexes (SPF, PF-UVA, λc, ISP, SUI) from UV absorbance 290–400 nm; assay type: physicochemical
Protocol: Photoprotective effectiveness is evaluated through photoprotective indexes such as SPF, PF-UVA, and critical wavelength (λc) (an indicator of the filter capacity to protect in the UVA range), as well as Spectral Uniformity Index (SUI) and Ideal Spectral Profile (ISP), two indexes recently defined by Diffey to focus on protection across the entire ultraviolet spectrum. They calculate the goodness of fit of the spectral profile to the ideal flat profile. SPF and PF-UVA measure the filter efficacy against UVB or UVA. SPF measurement is currently determined in vivo through determination of the erythemal reaction on human volunteers. For economical and ethical reasons, many alternative in vitro methods have been developed to measure SPF and also PF-UVA, λc or SUI and ISP. Unfortunately, despite concerted efforts around the globe between different commissions, none of them guarantees a good correlation with in vivo measurements. Moreover, all these in vitro methods require an amount of active raw material generally ≥100 mg and prevent the evaluation of compounds in minute amounts. The photoprotective indexes have been then determined thanks to a new method (see SM) especially developed to cope with the low availability of the compounds. Twelve commercial organic UV-filters, the photoprotective indexes of which were published (Table S3 in SM), encompassing a 1–24 SPF range were used for the development. It can be noted that the SPF values of benzophenone-3 (oxybenzone), PEG-25 PABA, homosalate, polysilicone 15 and 4-Methylbenzylidene Camphor are under 6, the value commonly accepted as the lower limit for commercial sunscreen. However, the efficient value of commercialized emulsion can be explained by the formulation of several organic and mineral filters. The similarity of the results (r^2 = 0.98 for published SPF vs. herein SPF, see Figure S1 in SM) supported the new method validity. Routinely, ethylhexyl methoxycinnamate (OMC) was used as positive control. Based on the SPF, λc, PF-UVA, SUI and ISP values obtained with marketed organic filters and on their UV range protection (Table S3 in SM), a decision tree was built to categorize the filters (Figure 3). Considering the herein SPF values of the filters cited above (around 2), the first condition to select a candidate is SPF > 2. Restricted UVA or UVB filters can be discriminated through the λc value (>370 nm) and PF-UVA (>2) for UVA and SUI (>1.2) and ISP (<90) for UVB. A large spectral protection (UVA + UVB) could be evaluated by combining the four criteria.
A new in vitro screening method based on spectrophotometric data was used to evaluate sun protection indexes such as SPF, PF-UVA, the critical wavelength λc, ISP and SUI. Its development was first conducted in a cuvette using twelve commercial organic filters encompassing a large range of SPF values (1 < SPF < 25) and then transposed in a 96-wells plate. Following the International recommendations, maximal concentrations never overtook 10% whatever the commercial filters or the lichens extracts or compounds considered. This new method faces some product availability limitation, which is a common shortcoming for natural products or metabolites (see all development in SM).
The scheme of solution preparation to record the experimental values is depicted in Figure 9. The sample (S4) was prepared at 0.02 mg/mL from stock solutions of filter candidate (S2) and of emulsion (S1) (See emulsion preparation in SM) taking into account the maximal concentration. The experimental absorbances Aλ were recorded in the 290–400 nm range versus a blank solution (S3) in a cuvette with a double beam spectrophotometer or in a 96-wells plate filled with 180 µL of solution by well. […] The diagram is described for final volumes of 50 mL, 100 µL, 25 mL and 25 mL for S1, S2, S3 and S4 solutions, respectively. Smaller volumes can easily be prepared. Solutions S2 and S4 were prepared in duplicate. […]

[5] = NBT assay (superoxide anion scavenging, non-enzymatic NADH/PMS); assay type: biochemical
Protocol: Measurements of superoxide anion scavenging activity in 96-well microplates was based on the non-enzymatic method previously described with some modifications. The reaction mixture in the sample wells consisted of NADH (78 µM), nitro-blue tetrazolium (NBT) (50 µM), phenazine methosulfate (PMS) (10 µM), and lichen compounds (10, 20, 40, 80 µg/mL). The reagents were dissolved in 16 mM tris-hydrochloride buffer, at pH = 8 except for all the lichen compounds/extract which were dissolved in DMSO. After 5 min of incubation at room temperature, the spectrophotometric measurement was performed at 560 nm against blanks (without PMS nor sample).
as §1

HaCaT cells [6] = assay: Cytotoxic and photocytotoxic activities before and after UVA irradiation; assay type: cell-based, human; conditions: for IC50: Homo sapiens, light or radiation study; for Photo-Irritancy Factor (PIF), formal PIF: formal PIF = *1.0 = Cmax(−UV)/Cmax(+UV)
Protocol: Briefly, 100 µL per well of a cell suspension of HaCaT cells (ATCC) at 120,000 cells/mL were maintained in a RPMI culture medium with 5% of calf serum at 37 °C under 5% CO2 for 24 h for formation of monolayers. At t = 24 h, two 96-well plates per test chemical were preincubated for 1 h with seven different concentrations of the tested compounds and extract (ranging from 1 µg/mL to 200 µg/mL). Chlorpromazine was used as the positive control. To allow results comparison and due to the presence of extract, concentrations are expressed in µg/mL.
For both assays, each concentration and all tests were done in triplicate and the results averaged. The percentage inhibition at steady state for each dilution was used to calculate the IC50 values.

HaCaT cells [7] = conditions: human
Protocol: For each drug ratio (Tables S7 and S8 in SM), the cytotoxicity was evaluated as previously described (2.7.1).
For both assays, each concentration was done in triplicate and the results averaged.

[8] = cited from earlier work; for SPF: commercial organic UV-filters, lower limit for commercial sunscreen 6
[9] = parameters: method as in earlier work; conditions: ref 37 (Rancan); cited from earlier work
[10] = before irradiation, new in vitro method
[11] = HaCaT cells, with UVA irradiation, read-out: IC50 ± SD With Irradiation
[12] = HaCaT cells, without irradiation, read-out: IC50 ± SD Without Irradiation

DPPH Assay IC50 ± SD [1]: 80.0 ± 8.0 µg/mL
photostability [2]: photostable in the UVA and UVB ranges
ISP (Ideal Spectral Profile) ([4]; before irradiation): 61%
PF-UVA ([4]; before irradiation): 1.8
SUI (Spectral Uniformity Index) ([4]; before irradiation): 1.9
critical wavelength (λc) ([4]; before irradiation): 386 nm
SPF [4, 10]: 4.1
NBT Assay IC50 ± SD [5]: 70.0 ± 23.0 µg/mL
Molecule: COC(=O)/C(=C1/OC(=O)C(c2ccc(OC)cc2)=C1O)c1ccccc1 [Pinastric acid, pinastric acid]
Superoxide anion scavenging activity (% inhibition) ([3]; Table S7, pinastric acid alone 17.5 µg/mL): 25.0%
Superoxide anion scavenging activity (% inhibition) ([3]; Table S7, pinastric acid alone 35.0 µg/mL): 37.0%
Superoxide anion scavenging activity (% inhibition) ([3]; Table S7, pinastric acid alone 52.5 µg/mL): 44.0%
Superoxide anion scavenging activity (% inhibition) ([3]; Table S7, pinastric acid alone 70.0 µg/mL): 50.0%
IC50 (HaCaT cells [6]; [11]): > 200 µg/mL
IC50 (HaCaT cells [6]; [12]): > 200 µg/mL
Photo-Irritancy Factor (PIF), formal PIF (HaCaT cells [6]): *1.0 ^c

decrease in indexes after irradiation ([2]; UVA or UVB irradiation): 25%
ISP (Ideal Spectral Profile) ([4]; before irradiation): 105%
PF-UVA ([4]; before irradiation): 1.6
SUI (Spectral Uniformity Index) ([4]; before irradiation): 1.1
critical wavelength (λc) ([4]; before irradiation): 330 nm
SPF [4, 10]: 10.4
SPF ([4]; cuvette, dissolved in DMSO): 10.1
SPF ([4]; cuvette, dissolved in THF): 9.6
Molecule: CCCCC(CC)COC(=O)C=Cc1ccc(OC)cc1 (stereo not drawn) [OMC, ethylhexyl methoxycinnamate, reference compound]

DPPH Assay IC50 ± SD [1]: 55.0 ± 8.0 µg/mL
photostability [2]: photostable in the UVA and UVB ranges
ISP (Ideal Spectral Profile) ([4]; before irradiation): 19%
PF-UVA ([4]; before irradiation): 3.9
SUI (Spectral Uniformity Index) ([4]; before irradiation): 7.6
NBT Assay IC50 ± SD [5]: 30.0 ± 3.0 µg/mL
Molecule: COC(=O)/C(=C1/OC(=O)C(c2ccccc2)=C1O)c1ccccc1 [Vulpinic acid, vulpinic acid]
Superoxide anion scavenging activity (% inhibition) ([3]; Table S6, vulpinic acid alone 7.5 µg/mL): 22.0%
Superoxide anion scavenging activity (% inhibition) ([3]; Table S6, vulpinic acid alone 15.0 µg/mL): 30.0%
Superoxide anion scavenging activity (% inhibition) ([3]; Table S6, vulpinic acid alone 22.5 µg/mL): 42.0%
Superoxide anion scavenging activity (% inhibition) ([3]; Table S6, vulpinic acid alone 30.0 µg/mL): 50.0%
IC50 (HaCaT cells [6]; [11]): > 200 µg/mL
IC50 (HaCaT cells [6]; [12]): > 200 µg/mL
Photo-Irritancy Factor (PIF), formal PIF (HaCaT cells [6]): *1.0 ^c
Percentage of cytotoxicity (HaCaT cells [7]; 5 µg/mL): 0.0%
Percentage of cytotoxicity (HaCaT cells [7]; 20 µg/mL): 0.0%

Molecule: PEG-25 PABA
SPF [8]: under 6

Molecule: CC1CC(OC(=O)c2ccccc2O)CC(C)(C)C1 (stereo not drawn) [homosalate]
SPF [8]: under 6

Molecule: usnic acid
DPPH Assay IC50 ± SD [1]: >500.0 µg/mL
in vivo SPF [9]: 4.1
variation in the SPF values after UVA irradiation ([2]; UVA 2 J/cm^2): +17%
photostability [2]: photostable in the UVA and UVB ranges
Superoxide anion scavenging activity (% inhibition) ([3]; Table S6, usnic acid alone 6.0 µg/mL): 32.0%
Superoxide anion scavenging activity (% inhibition) ([3]; Table S6, usnic acid alone 12.0 µg/mL): 40.0%
Superoxide anion scavenging activity (% inhibition) ([3]; Table S6, usnic acid alone 18.0 µg/mL): 46.0%
Superoxide anion scavenging activity (% inhibition) ([3]; Table S6, usnic acid alone 24.0 µg/mL): 50.0%
Superoxide anion scavenging activity (% inhibition) ([3]; Table S7, usnic acid alone 6.0 µg/mL): 32.0%
Superoxide anion scavenging activity (% inhibition) ([3]; Table S7, usnic acid alone 12.0 µg/mL): 40.0%
Superoxide anion scavenging activity (% inhibition) ([3]; Table S7, usnic acid alone 18.0 µg/mL): 46.0%
Superoxide anion scavenging activity (% inhibition) ([3]; Table S7, usnic acid alone 24.0 µg/mL): 50.0%
ISP (Ideal Spectral Profile) ([4]; before irradiation): 53%
PF-UVA ([4]; before irradiation): 1.8
critical wavelength (λc) ([4]; before irradiation): 364 nm
SPF [4, 10]: 3.9
NBT Assay IC50 ± SD [5]: 24.0 ± 9 µg/mL
IC50 ± SD With Irradiation (HaCaT cells [6]; HaCaT cells, with UVA irradiation): 47.0 ± 10.0 µg/mL
IC50 ± SD Without Irradiation (HaCaT cells [6]; HaCaT cells, without irradiation): 33.0 ± 2.0 µg/mL
phototoxic potential (HaCaT cells [6]; from PIF, human keratinocyte cell line, UVA): no phototoxic potential

Molecule: CN(C)CCCN1c2ccccc2Sc2ccc(Cl)cc21 [Chlorpromazine, reference compound]
IC50 (HaCaT cells [6]; [11]): 2.4 ± 0.3 µg/mL (≈ 7.53 µM)
IC50 (HaCaT cells [6]; [12]): 13.2 ± 1.7 µg/mL (≈ 41.4 µM)
Photo-Irritancy Factor (PIF) (HaCaT cells [6]; PIF = IC50(−UV)/IC50(+UV), PIF < 5 no phototoxic potential): 5.5 ^d

Molecule: COc1ccc(C(=O)c2ccccc2)c(O)c1 [benzophenone-3 (oxybenzone), benzophenone-3]
SPF [8]: under 6

SPF ([4]; cuvette, dissolved in DMSO): 1.8
Molecule: CCCCC(CC)COc1ccc(-c2nc(-c3ccc(OC)cc3)nc(-c3ccc(OCC(CC)CCCC)cc3O)n2)c(O)c1 (stereo not drawn) [anisotriazine, Bis-Ethylhexyloxyphenol Methoxytphenyl Triazine, reference compound]
published SPF ([8]; reference value, ref 6–8 of supplement): 23.9

Molecule: Cc1ccc(/C=C2/C(=O)C3(C)CCC2C3(C)C)cc1 (stereo not drawn) [4-Methylbenzylidene Camphor]
SPF [8]: under 6

DPPH Assay IC50 ± SD [1]: 12.5 ± 0.5 µg/mL
NBT Assay IC50 ± SD [5]: 3.0 ± 0.4 µg/mL
Molecule: O=C1O[C@H]([C@@H](O)CO)C(O)=C1O [Ascorbic acid, reference compound]
